In patent US4469704A, “2,3-Butanediol diester derivatives, process for producing the same, and an antiulcer drug containing the same” (SS Pharmaceutical Co., Ltd., priority 1980, dated 1984):
Where two headings read alike, the source gives them in different places.

Columns and labels:
[1] = tested on: tumor; conditions: Japanese Patent Publication No. 36-13349; cited from earlier work
[2] = Acute toxicity, intraperitoneal, 7 days observation; format: in vivo; conditions: mouse, ip; ddy male mice, intraperitoneally, dissolved in cotton seed oil, observation for seven days
Experimental: (§1) ddy male mice, arranged in groups each consisting of five mice, were given intraperitoneally 1000 mg/kg of the test compounds Nos. 1-4, 8-10, 14-18, 21, 22, 24, 25, 28, 31, 34, 35, 37, 45, 46, 48, 54, 57, 60, 62, 64, 68, 70, and 71 (as shown in Table 1) dissolved in cotton seed oil.

[3] = tested on: ddy male mice; assay: as above; format: in vivo; conditions: 1000 mg/kg intraperitoneally, groups of five ddy male mice
Experimental: as §1

[4] = tested on: ulcer; assay: Antiulcer action: inhibition of indomethacin-induced gastric ulcer (ulcer index) in rats; format: in vivo, Wister male rats; conditions: Rattus norvegicus, 1 h before indomethacin (25 mg/kg orally), read-out: Inhibition ratio
Experimental: Wister male rats each weighing about 200 g were given, after fasting for 24 hours, orally 25 mg/kg of indomethacin suspended in 1% aq. solution of sodium carboxymethylcellulose. Five hours later, 1 ml of physiological saline containing 2% brilliant blue was injected intravenously on their tails, and 10 minutes later, they were slaughtered and their stomachs were removed. After fixation by injecting 12 ml of 1% formalin aq. solution, the stomachs were extended on a flat plate and the injured parts on the stomach was measured with slide calipers. The sum of the lengths in mm was regarded as the ulcer index.
The test compound was emulsified or suspended in physiological saline containing one drop of polysolvate 80, and this was given orally or subcutaneously on the back one hour before administration of indomethacin.
The ulcer inhibition ratio was obtained from the following formula.
Inhibition ratio (%)=A/B×100
A: (ulcer index of control group)--(ulcer index of test group given the test compound)
B: (ulcer index of control group)

Molecule	antitumor effect [1]	LD50 at 168 h [2]	survival / anomaly after seven days [3]	inhibition in vivo at 200 mg/kg ([4]; sc, subcutaneously, 5 rats)	inhibition in vivo at 200 mg/kg ([4]; po, orally, 4 rats)	inhibition in vivo at 300 mg/kg ([4]; sc, 300 mg/kg, subcutaneously, 5 rats)
coixenolide	has an antitumor effect					
CCCCCCCCCCC(=O)OC(C)C(C)OC(=O)c1ccccc1 (centres unmarked) [compound 64]		> 1000 mg/kg	all the mice lived without any anomaly	41.3%		
CCCCCCCCC(=O)OC(C)C(C)OC(=O)C(C#N)=Cc1ccccc1 (centres unmarked) [compound 46]		> 1000 mg/kg	all the mice lived without any anomaly	56%		
CCCCCC(=O)OC(C)C(C)OC(=O)c1cc(OC)c(OC)c(OC)c1 (centres unmarked) [Compound No. 62]		> 1000 mg/kg	all the mice lived without any anomaly	50%		
CCCCCCCCCCCCCC(=O)OC(C)C(C)OC(=O)CCCCCCCCCCCCC (centres unmarked) [Compound No. 6]				57%		
CCCCCCCCCCC(=O)OC(C)C(C)OC(=O)CCCCC (centres unmarked) [compound 17]				37%		
CCCCCCCCC(=O)OC(C)C(C)OC(=O)C=Cc1ccccc1 (centres unmarked) [compound 24]		> 1000 mg/kg	all the mice lived without any anomaly	90%		
CCCCCCCC(=O)OC(C)C(C)OC(=O)CCCCCCC (centres unmarked) [Compound No. 1]				92%		
CCCCCCCCCCC(=O)OC(C)C(C)OC(=O)CCCCCCCCCC (centres unmarked) [Compound No. 4]				74%		
CCCCCCCCCCC(=O)OC(C)C(C)OC(=O)C=Cc1cc(OC)c(OC)c(OC)c1 (centres unmarked) [Compound No. 40]				99%		
CCCCCC(=O)OC(C)C(C)OC(=O)C=Cc1ccc(Cl)cc1 (centres unmarked) [compound 37]		> 1000 mg/kg	all the mice lived without any anomaly	85%		
CCCCCCCCCCCCCCCC(=O)OC(C)C(C)OC(=O)CCCCCCCCCCCCCCC (centres unmarked) [Compound No. 7]				30%		
CCCCCCCCCCC(=O)OC(C)C(C)OC(=O)CCc1ccccc1 (centres unmarked) [Compound No. 70]		> 1000 mg/kg	all the mice lived without any anomaly	45.9%		
CCCCCCCCCCC(=O)OC(C)C(C)OC(=O)c1cc(OC)c(OC)c(OC)c1 (centres unmarked) [Compound No. 68]		> 1000 mg/kg	all the mice lived without any anomaly	89.3%		
CCCCCC(=O)OC(C)C(C)OC(=O)C=Cc1ccc(OC)cc1 (centres unmarked) [compound 34]		> 1000 mg/kg	all the mice lived without any anomaly	75%		
CCCCCCCCCCC(=O)OC(C)C(C)OC(=O)COc1ccccc1 (centres unmarked) [Compound No. 71]		> 1000 mg/kg	all the mice lived without any anomaly	59.2%		

Molecule	antitumor effect [1]	LD50 at 168 h [2]	survival / anomaly after seven days [3]	inhibition in vivo at 200 mg/kg ([4]; sc, subcutaneously, 5 rats)	inhibition in vivo at 200 mg/kg ([4]; po, orally, 4 rats)	inhibition in vivo at 300 mg/kg ([4]; sc, 300 mg/kg, subcutaneously, 5 rats)
CCCCCC(=O)OC(C)C(C)OC(=O)C=Cc1ccc(C)cc1 (centres unmarked) [Compound No. 31]		> 1000 mg/kg	all the mice lived without any anomaly	91%		
C=CCCCCCCCCC(=O)OC(C)C(C)OC(=O)C=Cc1ccccc1 (centres unmarked) [compound 28]		> 1000 mg/kg	all the mice lived without any anomaly	62%		
CCCCCCCCCCC(=O)OC(C)C(C)OC(=O)C(C#N)=Cc1ccccc1 (centres unmarked) [compound 48]		> 1000 mg/kg	all the mice lived without any anomaly		84%	96%
CCC=CCC=CCC=CCCCCCCCC(=O)OC(C)C(C)OC(=O)CCCCCCCC=CCC=CCC=CCC (centres unmarked) [compound 16]				86%		
CCCCCC=CCC=CCCCCCCCC(=O)OC(C)C(C)OC(=O)CCCCCCCC=CCC=CCCCCC (centres unmarked) [compound 15]				47%		
CCCCCC(=O)OC(C)C(C)OC(=O)C(C)=Cc1ccccc1 (centres unmarked) [compound 54]		> 1000 mg/kg	all the mice lived without any anomaly	87%		
CCCCCCCC(=O)OC(C)C(C)OC(=O)C(C#N)=Cc1ccccc1 (centres unmarked) [compound 45]		> 1000 mg/kg	all the mice lived without any anomaly	84%		
CC(=Cc1ccccc1)C(=O)OC(C)C(C)OC(=O)C(C)=Cc1ccccc1 (centres unmarked) [compound 57]		> 1000 mg/kg	all the mice lived without any anomaly	80%		
CCCCCCCCC(=O)OC(C)C(C)OC(=O)CCCCCCCC (centres unmarked) [Compound No. 2]				90%		
CCCCCCCCCCC(=O)OC(C)C(C)OC(=O)C=Cc1ccc(OC)cc1 (centres unmarked) [Compound No. 35]		> 1000 mg/kg	all the mice lived without any anomaly	77%		
CCCCCC(=O)OC(C)C(C)OC(=O)c1ccc(OC)cc1 (centres unmarked) [compound 60]		> 1000 mg/kg	all the mice lived without any anomaly	41.4%		
CCCCCCCC/C=C\CCCCCCCC(=O)OC(C)C(C)OC(=O)CCCCCCCCCC (centres unmarked) [compound 21]		> 1000 mg/kg	all the mice lived without any anomaly			
CCCCCCCCCC(=O)OC(C)C(C)OC(=O)C=Cc1ccccc1 (centres unmarked) [Compound No. 25]		> 1000 mg/kg	all the mice lived without any anomaly	95%		
CCCCCCCCCC(=O)OC(C)C(C)OC(=O)CCCCCCCCC (centres unmarked) [Compound No. 3]				50%		
CCCCCC(=O)OC(C)C(C)OC(=O)C=Cc1ccccc1 (centres unmarked) [Compound No. 22]		> 1000 mg/kg	all the mice lived without any anomaly	91%		
